Read-outs that look alike come from different tables or passages of the source.
How the values were obtained:
SU-DHL-4 = assay: Cytotoxicity assay (CTG, 72 h) in SU-DHL-4; format: cell-based
Description: (§1) Cytotoxicity assay of compound 2 of Table 1 in selected cell lines
(§2) Day 0: cell seeding for all cell lines with the density of 10000 cells/80 μL/well.
(§3) Day 1, drug treatment: Prepare 3-fold serial dilutions of compound stock solutions with growth medium. Dispense 20 μL (5×) drμg solution in each well (duplicates for each concentration), the final DMSO concentration of each well treated with test compound and corresponding vehicle control is 0.1%. Incubate the plate for 72 h in specified incubator.
(§4) Day 4, plate reading: Thaw CTG solution and equilibrate to room temperature, add 100 μL of CTG per well, mix the contents for 2 min on the plate shaker, incubate for 10 min before recording the luminescence signal using Envision.

SU-DHL-5 = assay: Cytotoxicity assay (CTG, 72 h) in SU-DHL-5; format: cell-based
Description: as §1, §2, §3, §4

JVM-2 = assay: Cytotoxicity assay (CTG, 72 h) in JVM-2; format: cell-based
Description: as §1, §2, §3, §4

SU-DHL-6 = assay: Cytotoxicity assay (CTG, 72 h) in SU-DHL-6; format: cell-based
Description: as §1, §2, §3, §4

EHEB = assay: Cytotoxicity assay (CTG, 72 h) in EHEB; format: cell-based; settings: cell viability
Description: as §1, §2, §3, §4

[1] = Hepatocyte stability (parent drug disappearance in cryopreserved hepatocytes); format: in vitro ADME, human; settings: for half-life at 1 μM: human, cryopreserved hepatocytes
Description: The hepatocyte assay was used to evaluate the metabolic stability of test articles (TA) following incubation in cryopreserved hepatocytes by monitoring parent drug disappearance via […]. The TA with 1% final DMSO concentration was incubated with 0.5 million hepatocytes/ml at 1 μM substrate in duplicate. The incubation was carried out at 37° C. with 5% CO2 and saturating humidity. Samples were taken at 0, 1, 2, and 3 hours to monitor the disappearance of TA and a half-life (t ½) was determined. Table 2 below summarizes the t½ values (e.g. t ½) collected from this Example.

PI3Kδ = PI3Kδ (Homo sapiens (Human), UniProt O00329); assay: Enzymatic activity of PI3K isoforms, TR-FRET assay; format: biochemical; settings: 10 μM ATP
Chain of PI3Kδ (O00329 whole entry, canonical isoform): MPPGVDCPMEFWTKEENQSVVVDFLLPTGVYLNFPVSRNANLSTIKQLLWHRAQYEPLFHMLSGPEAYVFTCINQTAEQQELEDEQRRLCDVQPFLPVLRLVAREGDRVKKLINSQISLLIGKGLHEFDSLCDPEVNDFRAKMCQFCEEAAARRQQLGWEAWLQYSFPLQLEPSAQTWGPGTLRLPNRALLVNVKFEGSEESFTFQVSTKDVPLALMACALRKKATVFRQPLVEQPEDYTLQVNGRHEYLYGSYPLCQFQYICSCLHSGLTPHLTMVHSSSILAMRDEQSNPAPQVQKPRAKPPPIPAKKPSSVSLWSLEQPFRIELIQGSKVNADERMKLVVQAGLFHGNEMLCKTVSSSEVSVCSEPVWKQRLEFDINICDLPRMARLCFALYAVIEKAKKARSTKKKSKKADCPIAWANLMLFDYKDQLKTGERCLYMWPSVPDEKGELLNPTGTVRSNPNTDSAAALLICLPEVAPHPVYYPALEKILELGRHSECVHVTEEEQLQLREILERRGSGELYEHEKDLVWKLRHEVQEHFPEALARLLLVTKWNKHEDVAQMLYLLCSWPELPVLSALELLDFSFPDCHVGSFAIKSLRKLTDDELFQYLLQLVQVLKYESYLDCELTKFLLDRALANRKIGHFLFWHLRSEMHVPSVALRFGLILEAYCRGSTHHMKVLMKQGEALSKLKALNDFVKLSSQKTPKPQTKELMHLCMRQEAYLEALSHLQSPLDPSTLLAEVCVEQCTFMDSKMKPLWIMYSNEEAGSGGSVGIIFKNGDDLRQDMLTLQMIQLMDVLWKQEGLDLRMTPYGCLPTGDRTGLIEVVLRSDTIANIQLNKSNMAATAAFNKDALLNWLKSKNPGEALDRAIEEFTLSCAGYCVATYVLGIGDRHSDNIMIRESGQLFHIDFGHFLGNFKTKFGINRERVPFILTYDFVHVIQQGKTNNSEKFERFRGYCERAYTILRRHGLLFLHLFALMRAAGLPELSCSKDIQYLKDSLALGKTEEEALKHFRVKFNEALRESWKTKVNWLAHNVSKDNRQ
Chain of PI3Kδ (P27986 whole entry partner, canonical isoform): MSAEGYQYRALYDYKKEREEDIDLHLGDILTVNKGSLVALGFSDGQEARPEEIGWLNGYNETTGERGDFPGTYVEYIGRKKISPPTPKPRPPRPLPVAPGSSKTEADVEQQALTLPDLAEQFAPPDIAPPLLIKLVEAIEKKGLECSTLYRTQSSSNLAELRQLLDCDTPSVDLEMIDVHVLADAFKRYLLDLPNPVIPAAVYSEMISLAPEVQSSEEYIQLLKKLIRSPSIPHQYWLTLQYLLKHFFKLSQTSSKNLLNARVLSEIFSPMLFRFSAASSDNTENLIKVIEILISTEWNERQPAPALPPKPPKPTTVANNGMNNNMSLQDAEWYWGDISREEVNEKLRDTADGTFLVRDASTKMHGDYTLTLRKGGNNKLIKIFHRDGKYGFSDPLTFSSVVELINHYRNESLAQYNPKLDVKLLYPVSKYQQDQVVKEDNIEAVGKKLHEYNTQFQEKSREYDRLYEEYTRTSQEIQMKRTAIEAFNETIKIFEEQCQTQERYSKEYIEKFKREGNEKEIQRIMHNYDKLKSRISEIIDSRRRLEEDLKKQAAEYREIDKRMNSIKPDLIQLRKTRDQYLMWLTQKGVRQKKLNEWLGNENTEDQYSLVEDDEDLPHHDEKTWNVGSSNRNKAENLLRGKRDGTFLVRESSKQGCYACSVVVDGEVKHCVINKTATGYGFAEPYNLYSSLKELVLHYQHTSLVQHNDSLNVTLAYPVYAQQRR
Description: Enzymatic activity of the class I PI3K isoforms in the presence of the compounds of Table 1 above was measured using a time-resolved fluorescence resonance energy transfer (TR-FRET) assay.
The TR-FRET assay can monitor formation of the product 3,4,5-inositol triphosphate molecule (PIP3) as it competed with fluorescently labeled PIP3 for binding to the GRP-1 pleckstrin homology domain protein. An increase in […] product results in a decrease in TR-FRET signal as the labeled fluorophore is displaced from the GRP-1 protein binding site.
Control compound, PI-103, was tested in 10-dose IC50 with 3-fold serial dilution starting at 10 μm.
Data are normalized based on negative (DMSO) control. The alpha, beta, delta, and gamma IC50 values were calculated from the fit of the dose-response curves to a four parameter equation. IC50 are reported in units of nM.
IC50 values were obtained for all PI3K isoforms (α, β, δ, and γ), and Table 2 summarizes the IC50 data collected for PI3Kδ in this Example.

[2] = PK profile after iv and PO dosing in rats; format: in vivo, SD rats
Description: Compound 2 was dosed by both iv and PO in the rats.

[3] = cited from earlier work
[4] = cited from earlier work; remark: listed apart in the source
[5] = 1 μM substrate, 0.5 million hepatocytes/ml, 37° C., read-out: hepatocyte T1/2 (converted)
[6] = Homo sapiens, SU-DHL-4, cell viability
[7] = Homo sapiens, SU-DHL-5, cell viability
[8] = human hepatocytes, Table 3 comparison, read-out: T ½
[9] = Homo sapiens, JVM-2, cell viability
[10] = Homo sapiens, SU-DHL-6, cell viability
[11] = Sprague-Dawley, rat, in vivo, 1.32 mg/kg, iv, rats
[12] = Sprague-Dawley, rat, in vivo, po, 10 mg/kg, SD rats
[13] = IV, data from idelalisib NDA filing
[14] = oral, data from idelalisib NDA filing

SMILES: N.N.[Cl][Pt][Cl] [Cisplatin]
- IC50 (SU-DHL-4; cell viability): 0.507 µM
- IC50 (SU-DHL-5; cell viability): 0.28 µM
- IC50 (JVM-2; cell viability): 0.749 µM
- IC50 (SU-DHL-6; cell viability): 5.61 µM
- IC50 (EHEB): 2.59 µM

SMILES: C[C@H](Nc1nc(N)nc(N)c1C#N)c1cc2ccc(F)cc2nc1-c1ccccc1 [Compound 1, (S)-2,4-diamino-6-[1-(7-fluoro-2-phenyl-quinolin-3-yl)-ethylamino]-pyrimidine-5-carbonitrile]
- half-life at 1 μM [1, 5]: 27 h
- improved stability in human hepatocytes (longer half-life), fold ([1]; versus compound D): 2.7 ×
- IC50 (PI3Kδ): 0.043 nM

SMILES: C[C@H](Nc1nc(N)nc(N)c1C#N)c1cc2ccc(F)cc2nc1-c1ccccn1 [Compound 2, (S)-2,4-Diamino-6-[1-(7-fluoro-2-pyridin-2-yl-quinolin-3-yl)-ethylamino]-pyrimidine-5-carbonitrile]
- IC50 (SU-DHL-4; [6]): 0.088 µM
- IC50 (SU-DHL-5; [7]): 0.493 µM
- half-life at 1 μM [1, 5]: 53 h
- half-life at 1 μM [1, 8]: > 48 h
- IC50 (JVM-2; [9]): 0.931 µM
- IC50 (SU-DHL-6; [10]): 0.035 µM
- IC50 (EHEB): 0.216 µM
- AUC(0-inf) [2, 11]: 4550 ng·h/mL
- Cmax [2, 11]: 1090 ng/mL
- Tmax [2, 11]: 0.08 h
- clearance [2, 11]: 4.6 mL/min/kg
- half-life [2, 11]: 3.55 h
- Vd ([2]; Sprague-Dawley, rat, in vivo, 1.32 mg/kg, iv, rats, read-out: VSS): 1.12 L/kg
- AUC(0-inf) [2, 12]: 29500 ng·h/mL
- Cmax [2, 12]: 3170 ng/mL
- Tmax [2, 12]: 2 h
- bioavailability [2, 12]: 80%
- half-life [2, 12]: 3.12 h
- AUCinf/Dose ([2]; iv, rats): 3448
- Cmax/Dose ([2]; iv, rats): 828
- Oral exposure corrected with dose (AUCinf/dose), fold higher than that of idelalisib ([2]; oral dose 10 mg/kg, SD rats, versus idelalisib): 20 fold
- AUCinf/Dose ([2]; po, 10 mg/kg, SD rats): 2949
- Cl ([2]; po, 10 mg/kg, SD rats): 4.6 mL/min/kg
- Cmax/Dose ([2]; po, 10 mg/kg, SD rats): 317
- IC50 (PI3Kδ): 0.086 nM

SMILES: C[C@H](Nc1nc(N)nc(N)c1C#N)c1cc2ccc(F)cc2nc1-c1cc(F)cc(F)c1 [Compound 3, (S)-2,4-Diamino-6-{1-[2-(3,5-difluoro-phenyl)-7-fluoro-quinolin-3-yl]-ethylamino}-pyrimidine-5-carbonitrile]
- half-life at 1 μM [1, 5]: 17 h
- IC50 (PI3Kδ): 0.24 nM

SMILES: C[C@H](Nc1nc(N)nc(N)c1C#N)c1cc2ccc(F)cc2nc1-c1ccccc1S(C)(=O)=O [Compound 4, (S)-2,4-Diamino-6-{1-[7-fluoro-2-(2-methanesulfonyl-phenyl)-quinolin-3-yl]-ethylamino}-pyrimidine-5-carbonitrile]
- half-life at 1 μM [1, 5]: 6 h
- improved stability in human hepatocytes (longer half-life), fold ([1]; versus compound E): 1.3 ×
- IC50 (PI3Kδ): 0.27 nM

SMILES: C[C@H](Nc1nc(N)nc(N)c1C#N)c1cc2ccc(F)cc2nc1-c1cccc(F)c1 [Compound 5, (S)-2,4-diamino-6-{1-[7-fluoro-2-(3-fluoro-phenyl)-quinolin-3-yl]-ethylamino}-pyrimidine-5-carbonitrile]
- half-life at 1 μM [1, 5]: 20 h
- half-life at 1 μM [1, 8]: > 12 h
- IC50 (PI3Kδ): 0.14 nM

SMILES: C[C@H](Nc1nc(N)nc(N)c1C#N)c1cc2cccc(F)c2nc1-c1ccccn1 [Compound 6, (S)-2,4-Diamino-6-[1-(8-fluoro-2-pyridin-2-yl-quinolin-3-yl)-ethylamino]-pyrimidine-5-carbonitrile]
- half-life at 1 μM [1, 5]: 9 h

SMILES: C[C@H](Nc1nc(N)nc(N)c1C#N)c1cc2cccc(F)c2nc1-c1ccccc1S(C)(=O)=O [Compound 7, (S)-2,4-Diamino-6-{1-[8-fluoro-2-(2-methanesulfonyl-phenyl)-quinolin-3-yl]-ethylamino}-pyrimidine-5-carbonitrile]
- half-life at 1 μM [1, 5]: 59 h
- half-life at 1 μM [1, 8]: > 48 h
- IC50 (PI3Kδ): 2.1 nM

SMILES: C[C@H](Nc1nc(N)nc(N)c1C#N)c1cc2cccc(Cl)c2nc1-c1ccccn1 [Compound 8, (S)-2,4-Diamino-6-[1-(8-chloro-2-pyridin-2-yl-quinolin-3-yl)-ethylamino]-pyrimidine-5-carbonitrile]
- IC50 (PI3Kδ): 0.97 nM

SMILES: C[C@H](Nc1ncnc(N)c1C#N)c1cc2ccc(F)cc2nc1-c1ccccc1S(C)(=O)=O [Compound E, reference compound]
- half-life at 1 μM [1, 5]: 4.8 h

SMILES: C[C@H](Nc1ncnc(N)c1C#N)c1cc2ccc(F)cc2nc1-c1ccccc1 [D, reference compound]
- half-life at 1 μM [1, 5]: 10 h

SMILES: C[C@H](Nc1ncnc(N)c1C#N)c1cc2cccc(F)c2nc1-c1ccccc1S(C)(=O)=O [F, reference compound]
- half-life at 1 μM [1, 5]: 5.9 h
- half-life at 1 μM [1, 8]: < 6 h

SMILES: C[C@H](Nc1ncnc(N)c1C#N)c1cc2ccc(F)cc2nc1-c1cccc(F)c1 [G, reference compound]
- half-life at 1 μM [1, 5]: 1.2 h
- half-life at 1 μM [1, 8]: < 1.5 h

SMILES: C[C@H](Nc1ncnc(N)c1C#N)c1cc2ccc(F)cc2nc1-c1ccccn1 [H, reference compound]
- half-life at 1 μM [1, 5]: 0.88 h
- half-life at 1 μM [1, 8]: < 1 h

SMILES: CC[C@H](Nc1ncnc2[nH]cnc12)c1nc2cccc(F)c2c(=O)n1-c1ccccc1 [Idelalisib, idelalisib]
- IC50 (SU-DHL-4; [6]): 0.198 µM
- IC50 (SU-DHL-5; [7]): 1.68 µM
- IC50 (JVM-2; [9]): 1.43 µM
- Fatal and/or serious hepatotoxicity, % of patients ([3]; combination trials): 11%
- Fatal and/or serious hepatotoxicity, % of patients ([3]; monotherapy): 18%
- AUCinf [4, 13]: 1151 ± 407 ng·h/mL
- Cl [4, 13]: 478 ± 19 mL/min/kg
- Cmax [4, 13]: 1437 ± 220 ng/mL
- Tmax [4, 13]: 0.08 h
- VSS [4, 13]: 2.49 L/kg
- AUCinf [4, 14]: 422 ± 67 ng·h/mL
- Cmax [4, 14]: 129 ± 49 ng/mL
- Tmax [4, 14]: 3.00 h
- t1/2 ([4]; rat, in vivo, iv): 1.89 h
- IC50 (SU-DHL-6; [10]): 0.13 µM
- IC50 (EHEB): 0.506 µM

From patent US10792283B2, “Quinoline analogs as phosphatidylinositol 3-kinase inhibitors” (HANGZHOU ZHENGXIANG PHARMACEUTICALS CO., LTD., priority 2016, dated 2020)
